# In article PMC7995547, “ω‐Imidazolyl‐alkyl derivatives as new preclinical drug candidates for treating non‐alcoholic steatohepatitis” (Physiological Reports, 2021):
# What was measured:
# Type in all cases: in vivo, Wistar rats
# [1] = test system: HFD‐induced NASH rat model (liver and serum); experiment: End products of fat metabolism (liver and serum lipids), NASH rat model; conditions: for Decrease in liver triglyceride levels compared to disease group / Reduction of the effect of HFD on liver triglyceride levels: average over doses (I‐ol, I‐an); for Decrease in liver triglyceride levels compared to disease group / Reduction of the effect of HFD on liver triglyceride levels / Decrease in liver phospholipid levels compared to disease group / Decrease in serum LDL cholesterol / Decrease in serum triglyceride levels compared to disease group: UDCA 40 mg/kg b.w.
# Procedure: (§1) Studies were done using Wistar rats of female sex by the Institute of Pharmacology and Biochemistry at Minsk. The animals were 80–90 days old and weighed 180–200 g. They had free access to a liquid Lieber‐DeCarli (LDC) diet (Lieber et al., 2004) and were housed under standard conditions meaning a 12‐h light/dark cycle at 22 ± 2°C and 55 ± 5% humidity.
# (§2) Group 1 was designated as the first control group; it was fed a normal standard solid diet. Group 2, as the second control group, was fed a standard amount of fat as a part of the liquid “physiological,” non‐high fat LDC diet. All other groups received the liquid ‘disease‐causing’ LDC diet (Table 2), including a high content of unsaturated fatty acids.
# (§3) Both LDC diets were in a liquid form as produced by ssniff‐Spezialdiäten GmbH, Soest (Germany). The feed was provided over the entire experimental period of 16 weeks; however, the corresponding experimental substances were only administered in the last four weeks (Figure 3).
# (§4) The experimental substances I‐ol, I‐an, and UDCA were dissolved in a 0.8% aqueous HPMC gel to obtain the following concentrations: (1) I‐ol at 0.4, 4, and 40 mg/kg body weight (b.w.), (2) I‐an at 0.4, 4, and 40 mg/kg b.w., and (3) UDCA at 40 mg/kg b.w. The Group‐2 and −3 rats received only HPMC as placebo. Each test encompassed 6–8 rats that were put up in a separate cage. The rats were fed ad libitum, and their intake per cage was controlled daily. In order to ensure an exact daily reproducible dosage, the experimental substances or only HPMC was administered intragastrically via oral gavage. Basically, the drug therapy of a chronic disease is the more efficient the higher the adherence of the affected patients. This is generally higher with peroral administration than with any other form of application. At the end of the experiment, the animals were sacrificed under fasting conditions, by aorta dissection and exsanguination, after anesthetizing with an intraperitoneal injection of 5% pentobarbital solution.
# The activities of the liver enzymes aspartate aminotransferase (AST), alanine aminotransferase (ALT), alkaline phosphatase (AP), and γ‐glutamyl transferase (γ‐GT) as well as bilirubin and triglyceride levels in the serum were determined as described by the instructions of BIO‐LA‐tests kit (Erba Lachema, Brno, Czech Republic).
# Extraction of lipids was performed using a solvent composed of chloroform and methanol (2:1 v/v). Thin‐layer chromatography (TLC) was used to separate off neutral lipids and phospholipids. Silicagel G 60 plates (0.25 mm thick) were used. The lipids were separated by ascending chromatography in a system composed of hexane:diethylic ether:glacial acetic acid (73:25:2; v/v/v). They were visualized by iodine vapor and the spots corresponding to triglycerides and cholesterol were scraped off and eluted with methanol for spectrophotometric evaluation. Triglyceride and cholesterol levels were determined using the BIO‐LA‐test kit (Erba Lachema, Brno, Czech Republic). Phospholipid concentration was determined by measuring the levels of phosphomolybdate using an inorganic phosphate reagent containing molybdate (Findlay & Evans, 1987). VLDL level was determined by using the manganese precipitation method (Burstein & Scholnick, 1973) after partial modification (Hirano et al., 2003).
# [2] = test system: HFD‐induced NASH rat model (liver); experiment: Oxidative stress (ROS status) in the liver, HFD-induced NASH rat model; conditions: for Dose dependence of the effect on SRA level: Pearson correlation / linear regression; for Increase in GR activity compared to disease group: I‐ol, I‐an groups overall; for Increase in GR activity compared to disease group / Decrease in SRA level compared to disease group / Decrease in TBARS level compared to disease group / Reduction of the effect of HFD on the SRA level / Reduction of the effect of HFD on the TBARS level: UDCA 40 mg/kg b.w.; for Decrease in SRA level compared to disease group: average over 0.4, 4, 40 mg/kg b.w. (I‐ol, I‐an), oral gavage daily, last 4 of 16 weeks HFD; for Decrease in TBARS level compared to disease group / Reduction of the effect of HFD on the SRA level / Reduction of the effect of HFD on the TBARS level: average over doses (I‐ol, I‐an)
# Procedure: as §1
# The rats were divided into 10 groups based on the diets and experimental substances administered (Figure 2).
# as §2, §3, §4
# The formation of ROS in the rat liver was measured using NADPH‐induced chemiluminescence as described by Müller‐Peddinghaus et al. (Muller‐Peddinghaus, 1987). Luminol and lucigenin were used for detecting the superoxide radical anion (SRA) and hydrogen peroxide. Liver pieces were homogenized in 0.1 M sodium phosphate buffer, pH 7.4; the homogenates were centrifuged at 9,000 × g at 0°C; and aliquots were used for subsequent measurements. Reduced glutathione (GSH) was estimated via a modified Ellman's method (Ellman, 1959), in which 0.2 mL of the liver homogenate supernatant was added to 1.6 mL of an EDTA/sodium phosphoric acid solution and the absorbance noted at 412 nm against blank values. GSH solution produced immediately before application served as the standard. The end products of the lipid peroxidation reaction were equivalent to the thiobarbituric acid‐reacting substances (TBARS), and their concentration was measured according to the method described by Buege et al. (Buege & Aust, 1978). Enzymatic activities of microsomal glutathione reductase (GR) and cytosolic glutathione peroxidase (GPx) were measured according to the methodology of Buko et al. (Buko et al., 2002). Catalase activity was determined according to the spectroscopic methodology described by Beers et al. (Beers & Sizer, 1952) using hydrogen peroxide as the substrate.
# [3] = test system: HFD‐induced NASH rat model (liver); experiment: Area of connective tissue in the liver (Mallory‐Azan staining), NASH rat model
# Procedure: as §1, §2, §3, §4
# Liver tissue sections were subject to the Mallory‐Azan (Heidenhain Azan) staining method for visualizing the connective tissues. This method was a modification of the original Mallory staining protocol, wherein azocarmin with a mixture of aniline blue and orange G was used. In this method, the collagen tissue and basophilic granules turn blue, the muscle tissue and acidophilic granules turn orange to red, and the cell nuclei and cytoplasm turn red. Elastic fibers remain unstained; however, they might turn yellow or pink. The proportion of positively stained liver tissue to the total area of the histological slide was determined quantitatively.
# [4] = test system: HFD‐induced NASH rat model (liver); experiment: Liver histopathology, semi‐quantitative evaluation, NASH rat model; set-up: key to Steatosis score / Balooning score: 0, none; 1, ≤25%; 2, 26–50%; 3, ≥51–75% of liver parenchyma; conditions: for Balooning score / Inflammation score / Steatosis score: H.E.‐stained liver slices
# Procedure: as §1, §2, §3, §4
# Pieces of liver tissue measuring 1 × 2 × 0.5 mm were chosen randomly and fixed for a week in the mixture of 1% formaldehyde and 1% paraformaldehyde in Sorensen's phosphate buffer (pH 7.4) (Morphisto GmbH, Frankfurt/Main). After this the pieces were kept in 2.5% glutaraldehyde in same buffer, rinsed and then post‐fixed in 1% solution of osmium tetroxide on the Sorensen's phosphate buffer (pH 7.4). After fixation, the liver samples were dehydrated and embedded in the pre‐polymerized mixture of methyl methacrylate and butyl methacrylate (1:4, v/v) containing 2,4‐dichlorbenzoyl peroxide as a catalyst.
# […] A semi‐quantitative evaluation of the sections was performed according to the procedure described by Koppe et al. (Koppe et al., 2004).
# [5] = liver, highest concentration (40 mg/kg b.w.)
# [6] = lowest concentration (0.4 mg/kg b.w.)
smiles,measurement,setting,value
"CCCCCCCCCCCCn1ccnc1 [I‐an, 1‐imidazolyldodecane]",Dose dependence of the effect on liver phospholipid levels,"[1]; 0.4, 4, 40 mg/kg b.w.","strong and very highly significant (p < 0.001), linear, dose‐dependent effect"
same,Reduction of the effect of HFD on liver phospholipid levels,[1]; average over doses,53%
same,Serum triglyceride level below the reference value of group 1,[1]; average over doses,4%
same,Decrease in liver triglyceride levels compared to disease group,[1],15%
same,Reduction of the effect of HFD on liver triglyceride levels,[1],33%
same,Decrease in liver phospholipid levels compared to disease group,[1]; average over doses,13%
same,Decrease in serum LDL cholesterol,[1]; average over doses,non‐significant trend toward lowering the serum LDL level
same,Decrease in serum triglyceride levels compared to disease group,[1]; average over doses,12%
same,Liver phospholipid level above the reference value of group 1,[1]; highest concentration (40 mg/kg b.w.),3%
same,Liver cholesterol level below the reference value of group 1,[1]; low dose (0.4 mg/kg b.w.),8%
same,Reduction of liver cholesterol level compared to disease group,[1]; low dose (0.4 mg/kg b.w.),18%
same,Dose dependence of the effect on GSH level,"[2]; 0.4, 4, 40 mg/kg b.w.","weak, significant (p < 0.05), linear, dose‐dependent effect"
same,Dose dependence of the effect on SRA level,"[2]; 0.4, 4, 40 mg/kg b.w.","weak, significant (p < 0.05), linear, dose‐dependent effect"
same,Increase in GR activity compared to disease group,[2]; liver,no effect
same,Decrease in SRA level compared to disease group,[2]; liver,23%
same,Decrease in TBARS level compared to disease group,[2]; liver,35%
same,Reduction of the effect of HFD on the SRA level,[2]; liver,65%
same,Reduction of the effect of HFD on the TBARS level,[2]; liver,82%
same,Decrease in hydrogen peroxide level compared to disease group,[2]; [5],43%
same,Hydrogen peroxide level below the reference values of group 1,[2]; [5],4%
same,Increase in GSH level compared to disease group,[2]; [5],63%
same,Reduction of SRA level,[2]; [5],75%
same,Reduction of the effect of HFD on GSH level,[2]; [5],87%
same,Effect on area of connective tissue in the liver (in words),[3]; compound overall,no therapeutic effect
same,Balooning score,[4]; 0.4 mg/kg b.w. + HFD,0–1
same,Inflammation score,[4]; 0.4 mg/kg b.w. + HFD,"1 (1, <5 signs of inflammation)"
same,Steatosis score,[4]; 0.4 mg/kg b.w. + HFD,0–1
same,Balooning score,[4]; 4.0 mg/kg b.w. + HFD,"1 (1, ≤25%)"
same,Inflammation score,[4]; 4.0 mg/kg b.w. + HFD,"1 (1, <5 signs of inflammation)"
same,Steatosis score,[4]; 4.0 mg/kg b.w. + HFD,0–1
same,Balooning score,[4]; 40.0 mg/kg b.w. + HFD,0–1
same,Inflammation score,[4]; 40.0 mg/kg b.w. + HFD,"1 (1, <5 signs of inflammation)"
same,Steatosis score,[4]; 40.0 mg/kg b.w. + HFD,0–1
"OCCCCCCCCCCCCn1ccnc1 [I‐ol, 12‐imidazolyl‐1‐dodecanol]",Serum LDL cholesterol below the reference value of group 1,[1]; average over doses,11%
same,Decrease in liver triglyceride levels compared to disease group,[1],18%
same,Reduction of the effect of HFD on liver triglyceride levels,[1],41%
same,Decrease in liver phospholipid levels compared to disease group,[1]; average over doses,no therapeutic effect
same,Decrease in serum LDL cholesterol,[1]; average over doses,28%
same,Decrease in serum triglyceride levels compared to disease group,[1]; average over doses,no therapeutic effect
same,Reduction of serum VLDL level,[1]; medium concentration (4 mg/kg b.w.),19%
same,Liver cholesterol level below the reference value of group 1,[1]; medium dose (4 mg/kg b.w.),7%
same,Reduction of liver cholesterol level compared to disease group,[1]; medium dose (4 mg/kg b.w.),17%
same,Dose dependence of the effect on hydrogen peroxide level,"[2]; 0.4, 4, 40 mg/kg b.w.","strong, very highly significant (p < 0.001), linear, dose‐dependent effect"
same,Dose dependence of the effect on SRA level,"[2]; 0.4, 4, 40 mg/kg b.w.","strong, very highly significant (p < 0.001), linear, dose‐dependent effect"
same,Increase in GR activity compared to disease group,[2]; liver,28%
same,Decrease in SRA level compared to disease group,[2]; liver,21%
same,Decrease in TBARS level compared to disease group,[2]; liver,38%
same,Reduction of the effect of HFD on the SRA level,[2]; liver,60%
same,Reduction of the effect of HFD on the TBARS level,[2]; liver,87%
same,Effect on GSH level (in words),"[2]; liver, compound overall",non‐significant trend toward an increasing GSH level
same,Decrease in hydrogen peroxide level compared to disease group,[2]; [5],50%
same,Hydrogen peroxide level below the reference values of group 1,[2]; [5],16%
same,SRA level below the reference value of control group 1,[2]; [5],24%
same,"Effect of HFD nullified, GR activity increased by (on an average)","[2]; liver, relative to the effect of HFD",113%
same,Decrease in area of connective tissue in the liver compared to disease group,[3]; [6],28%
same,Reduction of the effect of HFD on area of connective tissue in the liver,[3]; [6],72%
same,Balooning score,[4]; 0.4 mg/kg b.w. + HFD,"1 (1, ≤25%)"
same,Inflammation score,[4]; 0.4 mg/kg b.w. + HFD,1–2
same,Steatosis score,[4]; 0.4 mg/kg b.w. + HFD,0–1
same,Balooning score,[4]; 4.0 mg/kg b.w. + HFD,"1 (1, ≤25%)"
same,Inflammation score,[4]; 4.0 mg/kg b.w. + HFD,"1 (1, <5 signs of inflammation)"
same,Steatosis score,[4]; 4.0 mg/kg b.w. + HFD,0
same,Balooning score,[4]; 40.0 mg/kg b.w. + HFD,"1 (1, ≤25%)"
same,Inflammation score,[4]; 40.0 mg/kg b.w. + HFD,"1 (1, <5 signs of inflammation)"
same,Steatosis score,[4]; 40.0 mg/kg b.w. + HFD,0–1
same,Effect on liver histology (in words),[4]; animals with NASH (HFD),dose‐dependent reduction of the pathological signs
